In publication PMC6659418 (Bioorganic & medicinal chemistry letters, 2017):

How the values were obtained:
[1] = molecular target: T1, hM4 (Homo sapiens, UniProt P08173); assay: calcium mobilization assay, hM4/Gqi5 CHO cells, ACh EC80; type: cell-based; conditions: for hM4 % ACh Min ±SEM: presence of ACh EC80
T1 sequence (P08173 1-479): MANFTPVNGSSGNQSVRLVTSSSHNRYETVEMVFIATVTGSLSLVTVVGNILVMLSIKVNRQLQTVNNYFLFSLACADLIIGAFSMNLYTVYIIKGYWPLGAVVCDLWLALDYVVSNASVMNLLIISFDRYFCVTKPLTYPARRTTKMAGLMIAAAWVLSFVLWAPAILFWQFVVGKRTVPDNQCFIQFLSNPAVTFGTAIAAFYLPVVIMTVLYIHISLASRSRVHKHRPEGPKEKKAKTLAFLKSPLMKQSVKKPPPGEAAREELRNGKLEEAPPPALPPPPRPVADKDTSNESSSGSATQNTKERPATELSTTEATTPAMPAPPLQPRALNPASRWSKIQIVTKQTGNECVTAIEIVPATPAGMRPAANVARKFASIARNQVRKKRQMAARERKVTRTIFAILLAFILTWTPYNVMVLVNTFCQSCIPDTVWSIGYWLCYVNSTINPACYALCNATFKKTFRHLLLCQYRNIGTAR

[2] = molecular target: T2, rM4 (Rattus norvegicus, UniProt P08485); assay: activity at rat mAChRs, rM4; type: cell-based
T2 sequence (P08485 1-478): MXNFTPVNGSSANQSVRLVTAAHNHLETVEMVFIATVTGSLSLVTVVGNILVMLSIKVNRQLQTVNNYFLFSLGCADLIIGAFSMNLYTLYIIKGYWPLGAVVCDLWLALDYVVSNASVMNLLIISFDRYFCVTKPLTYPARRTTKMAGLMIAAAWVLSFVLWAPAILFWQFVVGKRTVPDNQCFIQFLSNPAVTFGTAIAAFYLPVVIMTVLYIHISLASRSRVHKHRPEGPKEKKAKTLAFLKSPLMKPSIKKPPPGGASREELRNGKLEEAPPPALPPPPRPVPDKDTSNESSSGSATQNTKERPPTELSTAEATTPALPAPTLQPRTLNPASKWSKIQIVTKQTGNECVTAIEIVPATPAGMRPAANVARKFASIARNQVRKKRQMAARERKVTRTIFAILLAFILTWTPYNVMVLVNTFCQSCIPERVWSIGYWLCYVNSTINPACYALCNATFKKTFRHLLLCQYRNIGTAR

[3] = molecular target: hM3 (Homo sapiens, UniProt P20309); assay: calcium mobilization assay, hM3 CHO cells, ACh EC80; type: cell-based
Sequence of hM3 (P20309 whole entry): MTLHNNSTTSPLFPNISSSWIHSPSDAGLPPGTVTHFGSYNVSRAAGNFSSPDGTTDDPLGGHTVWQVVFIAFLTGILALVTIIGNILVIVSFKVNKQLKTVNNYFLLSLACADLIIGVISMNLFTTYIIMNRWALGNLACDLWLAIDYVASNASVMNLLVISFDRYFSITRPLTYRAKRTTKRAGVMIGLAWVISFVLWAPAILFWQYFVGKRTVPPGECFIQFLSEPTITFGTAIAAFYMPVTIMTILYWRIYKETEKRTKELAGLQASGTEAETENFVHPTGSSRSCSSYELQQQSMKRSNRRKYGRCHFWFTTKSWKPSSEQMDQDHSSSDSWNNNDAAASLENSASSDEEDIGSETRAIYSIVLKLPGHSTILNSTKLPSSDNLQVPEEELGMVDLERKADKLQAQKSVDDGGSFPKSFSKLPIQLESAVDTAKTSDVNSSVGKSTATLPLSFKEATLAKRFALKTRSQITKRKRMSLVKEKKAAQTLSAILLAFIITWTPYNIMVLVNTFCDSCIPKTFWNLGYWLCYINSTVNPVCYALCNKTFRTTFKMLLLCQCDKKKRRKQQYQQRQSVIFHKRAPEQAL

[4] = predicted hepatic clearance from microsomal intrinsic clearance, human; type: in vitro ADME; conditions: based on microsomal CLint
[5] = molecular target: T3, hM5 (Homo sapiens, UniProt P08912); assay: calcium mobilization assay, hM5 CHO cells, ACh EC80; type: cell-based
T3 sequence (P08912 1-532): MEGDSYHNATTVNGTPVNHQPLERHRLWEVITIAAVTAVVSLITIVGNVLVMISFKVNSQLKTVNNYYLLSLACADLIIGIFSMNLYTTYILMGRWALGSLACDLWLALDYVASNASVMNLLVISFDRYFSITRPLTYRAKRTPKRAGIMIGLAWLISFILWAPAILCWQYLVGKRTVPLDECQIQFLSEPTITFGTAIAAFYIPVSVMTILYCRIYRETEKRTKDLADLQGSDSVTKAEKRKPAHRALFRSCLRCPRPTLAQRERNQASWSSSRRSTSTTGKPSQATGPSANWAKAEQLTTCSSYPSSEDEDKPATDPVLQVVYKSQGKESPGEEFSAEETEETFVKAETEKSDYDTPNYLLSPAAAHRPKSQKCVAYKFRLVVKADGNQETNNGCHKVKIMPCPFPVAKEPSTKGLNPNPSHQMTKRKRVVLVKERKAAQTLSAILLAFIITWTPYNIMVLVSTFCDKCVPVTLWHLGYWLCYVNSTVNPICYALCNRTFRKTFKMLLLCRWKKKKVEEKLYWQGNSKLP

[6] = molecular target: T4, hM2 (Homo sapiens, UniProt P08172); assay: calcium mobilization assay, hM2/Gqi5 CHO cells, ACh EC80; type: cell-based
T4 sequence (P08172 1-466): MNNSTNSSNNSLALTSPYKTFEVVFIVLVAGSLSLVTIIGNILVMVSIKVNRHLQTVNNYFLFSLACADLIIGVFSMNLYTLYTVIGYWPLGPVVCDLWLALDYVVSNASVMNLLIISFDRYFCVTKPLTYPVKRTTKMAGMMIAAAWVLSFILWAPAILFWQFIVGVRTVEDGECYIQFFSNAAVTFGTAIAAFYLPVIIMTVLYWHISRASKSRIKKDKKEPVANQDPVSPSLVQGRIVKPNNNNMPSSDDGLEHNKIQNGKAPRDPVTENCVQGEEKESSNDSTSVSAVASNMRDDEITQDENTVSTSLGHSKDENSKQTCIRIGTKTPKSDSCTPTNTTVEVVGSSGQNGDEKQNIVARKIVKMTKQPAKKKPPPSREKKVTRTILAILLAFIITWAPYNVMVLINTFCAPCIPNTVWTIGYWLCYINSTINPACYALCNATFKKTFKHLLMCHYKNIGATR

[7] = predicted hepatic clearance from microsomal intrinsic clearance, rat; type: in vitro ADME; conditions: based on microsomal CLint
[8] = molecular target: T5, hM1 (Homo sapiens, UniProt P11229); assay: calcium mobilization assay, hM1 CHO cells, ACh EC80; type: cell-based
T5 sequence (P11229 1-460): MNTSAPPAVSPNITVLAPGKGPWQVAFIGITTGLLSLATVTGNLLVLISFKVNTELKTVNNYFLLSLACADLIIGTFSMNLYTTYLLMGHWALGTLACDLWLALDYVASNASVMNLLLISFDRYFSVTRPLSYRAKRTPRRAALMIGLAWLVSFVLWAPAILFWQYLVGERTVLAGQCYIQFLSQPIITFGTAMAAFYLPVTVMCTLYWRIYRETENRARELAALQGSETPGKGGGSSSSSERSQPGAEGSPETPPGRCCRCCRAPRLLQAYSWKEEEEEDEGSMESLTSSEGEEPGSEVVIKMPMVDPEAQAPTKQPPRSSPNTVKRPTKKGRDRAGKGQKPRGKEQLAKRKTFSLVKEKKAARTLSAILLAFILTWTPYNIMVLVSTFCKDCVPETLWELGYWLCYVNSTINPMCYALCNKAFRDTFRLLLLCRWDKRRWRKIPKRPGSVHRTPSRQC

[9] = metabolite identification in rat hepatic microsomes; type: in vitro ADME
[10] = metabolite identification in human hepatic microsomes; type: in vitro ADME
[11] = plasma protein binding; type: in vitro ADME

SMILES: Cc1noc(C)c1S(=O)(=O)N1CCN(c2ccc(N3CCOC[C@@H]3C)nn2)CC1 [Compound 14c]
- hM4 % ACh Min ±SEM [1]: 66 % ACh Min

SMILES: Cc1noc(C)c1S(=O)(=O)N1CCN(c2ccc(N3CCCC(C)(C)C3)nn2)CC1 [Compound 14n, 4-[4-[6-(3,3-dimethyl-1-piperidyl)pyridazin-3-yl]piperazin-1-yl]sulfonyl-3,5-dimethyl-isoxazole]
- rM4 % ACh Min [2]: 32±1 % ACh Min
- IC50 ([2]; rM4 pIC50): 372 nM
- mode of antagonism at human M3 [3]: weak, partial antagonism
- predicted hepatic clearance (CLhep), human [4]: 20 mL/min/kg
- mode of antagonism at human M5 [5]: weak, partial antagonism
- mode of antagonism at human M2 [6]: potent full antagonist
- predicted hepatic clearance (CLhep), rat [7]: 66.6 mL/min/kg
- mode of antagonism at human M1 [8]: potent full antagonist

SMILES: O=C1CCCCN1c1ccc(N2CCN(S(=O)(=O)c3ccccc3Cl)CC2)nn1 [Compound 14o]
- hM4 % ACh Min ±SEM [1]: 51 % ACh Min

SMILES: C[C@H]1CCCCN1c1ccc(N2CCN(S(=O)(=O)c3ccccc3Cl)CC2)nn1 [Compound 6a]
- predicted hepatic clearance (CLhep), human [4]: > 20 mL/min/kg
- parent remaining, rat microsomes [9]: very little parent remained
- major peak (UV and extracted ion chromatograms), rat microsomes ([9]; oxidative metabolism of the piperidine moiety): metabolite F
- NADPH-independent metabolism, rat microsomes ([9]; presence and absence of NADPH): no NADPH-independent metabolism
- number of NADPH-dependent metabolites formed, human microsomes [10]: 8
- parent remaining, human microsomes [10]: parent remained the major species
- NADPH-independent metabolism, human microsomes ([10]; presence and absence of NADPH): no NADPH-independent metabolism
- predicted hepatic clearance (CLhep), rat [7]: > 60 mL/min/kg
- M4-preferring functional selectivity over other mAChRs ([1]; hM4 versus hM1, hM2, hM3, hM5): 2.7- to 16 fold
- plasma protein binding [11]: high plasma protein binding

SMILES: C[C@H]1CCCCN1c1ccc(N2CCN(S(=O)(=O)c3ccccc3C(F)(F)F)CC2)nn1 [Compound 9e]
- hM4 activity [1]: essentially equipotent to 6a

SMILES: C[C@H]1CCCCN1c1ccc(N2CCN(S(=O)(=O)c3ccc4c(c3)OCO4)CC2)nn1 [Compound 9i]
- fold more potent at hM4 than 3,4-dimethoxy analog 9j ([1]; 9i versus 9j): 10 fold

SMILES: C[C@H]1COCCN1c1ccc(N2CCN(S(=O)(=O)c3ccccc3Cl)CC2)nn1 [Compound 14a]
- hM4 % ACh Min ±SEM [1]: 56 % ACh Min

SMILES: C[C@H]1CCCCN1c1ccc(N2CCN(S(=O)(=O)c3ccccc3)CC2)nn1 [Compound 9c]
- hM4 activity [1]: weak

SMILES: COc1ccccc1S(=O)(=O)N1CCN(c2ccc(N3CCCC[C@@H]3C)nn2)CC1 [Compound 9d]
- hM4 activity [1]: weak

SMILES: O=S(=O)(c1ccccc1Cl)N1CCN(c2ccc(N3CCCCC3)nn2)CC1 [Compound 14g]
- fold loss in hM4 inhibitory activity relative to 6a [1]: 5- to 6 fold

SMILES: C[C@H]1COCCN1c1ccc(N2CCN(S(=O)(=O)c3ccc4c(c3)OCO4)CC2)nn1 [Compound 14b]
- hM4 % ACh Min ±SEM [1]: 63 % ACh Min
